Details: in vivo
Description: Progesterone content in the plasma was determined by direct radio immuno assay (Coat-a-Count, DPC, USA).

Time to return to undetectable basal plasma progesterone levels after insert removal: ≤ 24 h
Substance: poly (ε-caprolactone)

— US20040142012A1, “Geometry retainable devices for body cavities” (priority 2001, published 2004)
